Legend:
[1] = Cytotoxicity in mock-infected MT-4 cells, MTT method; type: cell-based; settings: human, mock-infected MT-4 cells, CC50, mock-infected MT-4 cells
[2] = system: HIV-1 mutant strain L100I; assay: microbe, parasite or virus in culture; type: cell-based; settings: Human immunodeficiency virus 1, MT4, read-out: EC50 L100I
[3] = system: HIV-1 mutant strain K103N; assay: microbe, parasite or virus in culture; type: cell-based; settings: Human immunodeficiency virus 1, MT4, read-out: EC50 K103N
[4] = system: HIV-1 mutant strain Y181C; assay: microbe, parasite or virus in culture; type: cell-based; settings: Human immunodeficiency virus 1, MT4, read-out: EC50 Y181C
[5] = system: HIV-1 mutant strain Y188L; assay: microbe, parasite or virus in culture; type: cell-based; settings: Human immunodeficiency virus 1, MT4, read-out: EC50 Y188L
[6] = system: HIV-1 mutant strain E138K; assay: microbe, parasite or virus in culture; type: cell-based; settings: Human immunodeficiency virus 1, MT4, read-out: EC50 E138K
[7] = system: HIV-1 mutant strain F227L + V106A; assay: microbe, parasite or virus in culture; type: cell-based; settings: Human immunodeficiency virus 1, MT4, read-out: EC50 F227L + V106A
[8] = system: HIV-1 mutant strain RES056 (K103N + Y181C); assay: microbe, parasite or virus in culture; type: cell-based; settings: Human immunodeficiency virus 1, MT4, read-out: EC50 RES056
[9] = system: HIV-1 WT strain (IIIB); assay: Anti-HIV activity against WT HIV-1; settings: WT HIV-1 IIIB

Compound | CC50 at 5 days [1] [nM] | EC50 [2] [nM] | EC50 [3] [nM] | EC50 [4] [nM] | EC50 [5] [nM] | EC50 [6] [nM] | EC50 [7] [nM] | EC50 [8] [nM] | SI IIIB (CC50/EC50 ratio) [9]
O=C1Nc2ccc(Cl)cc2[C@@](C#CC2CC2)(C(F)(F)F)O1 [EFV, Efavirenz, reference compound] | > 6340 | 32 ± 6 | 100 ± 19 | 7 ± 2 | 270 ± 16 | 7 ± 1 | 270 ± 48 | 480 ± 190 | 
Cc1cc(C#N)cc(C)c1Oc1nc(Nc2ccc(C#N)cc2)nc(N)c1Br [ETR, Etravirine, reference compound] | > 4590 | 32 ± 28 | 15 ± 12 | 58 ± 41 | 83 ± 53 | 37 ± 30 | 88 ± 76 | 150 ± 120 | >900
Cc1ccnc2c1NC(=O)c1cccnc1N2C1CC1 [NVP, Nevirapine, reference compound] | > 15000 | 1260 ± 600 | 5330 ± 1070 | > 9520 | > 9520 | 95 ± 31 | > 9520 | > 9520 | >114
Cc1ccc(S(=O)(=O)NCCNC(=O)c2[nH]c3ccc(Cl)cc3c2S(=O)(=O)c2cc(C)cc(C)c2)cc1 [R1L2, 5-Chloro-3-((3,5-dimethylphenyl)sulfonyl)-N-(2-((4-methylphenyl)sulfonamido)ethyl)-1H-indole-2-carboxamide] | 168000 ± 17200 | 680 ± 390 | 410 ± 110 | 610 ± 130 | 6420 ± 1400 | 860 ± 360 | 1750 ± 200 | 3380 ± 890 | 3787
Cc1ccc(S(=O)(=O)NCCCNC(=O)c2[nH]c3ccc(Cl)cc3c2S(=O)(=O)c2cc(C)cc(C)c2)cc1 [R1L3, 5-Chloro-3-((3,5-dimethylphenyl)sulfonyl)-N-(3-((4-methylphenyl)sulfonamido)propyl)-1H-indole-2-carboxamide] | 168000 ± 23500 | 540 ± 420 | 730 ± 140 | 1190 ± 300 | 7140 ± 1400 | 210 ± 140 | 1260 ± 380 | 5970 ± 650 | 4586
Cc1ccc(S(=O)(=O)NCCCCNC(=O)c2[nH]c3ccc(Cl)cc3c2S(=O)(=O)c2cc(C)cc(C)c2)cc1 [R1L4, 5-Chloro-3-((3,5-dimethylphenyl)sulfonyl)-N-(4-((4-methylphenyl)sulfonamido)butyl)-1H-indole-2-carboxamide] | 103000 ± 59800 | 160 ± 85 | 310 ± 68 | 310 ± 68 | 1520 ± 270 | 130 ± 85 | 310 ± 34 | > 103000 | 3232
Cc1ccc(S(=O)(=O)NCCCCCNC(=O)c2[nH]c3ccc(Cl)cc3c2S(=O)(=O)c2cc(C)cc(C)c2)cc1 [R1L5, 5-Chloro-3-((3,5-dimethylphenyl)sulfonyl)-N-(5-((4-methylphenyl)sulfonamido)pentyl)-1H-indole-2-carboxamide] | 113000 ± 3740 | 170 ± 17 | 630 ± 17 | 230 ± 17 | 2530 ± 180 | 180 ± 17 | 380 ± 130 | > 113000 | 4159
COc1ccc(S(=O)(=O)NCCNC(=O)c2[nH]c3ccc(Cl)cc3c2S(=O)(=O)c2cc(C)cc(C)c2)cc1 [R2L2, 5-Chloro-3-((3,5-dimethylphenyl)sulfonyl)-N-(2-((4-methoxyphenyl)sulfonamido)ethyl)-1H-indole-2-carboxamide] | 106000 ± 23000 | 660 ± 230 | 900 ± 380 | 850 ± 35 | > 106000 | 1110 ± 170 | 1580 ± 450 | > 106000 | 1233
COc1ccc(S(=O)(=O)NCCCNC(=O)c2[nH]c3ccc(Cl)cc3c2S(=O)(=O)c2cc(C)cc(C)c2)cc1 [R2L3, 5-Chloro-3-((3,5-dimethylphenyl)sulfonyl)-N-(3-((4-methoxyphenyl)sulfonamido)propyl)-1H-indole-2-carboxamide] | 163000 ± 15300 | 320 | 660 ± 85 | 830 ± 68 | 5980 ± 310 | 250 | 970 ± 51 | > 163000 | 4354
COc1ccc(S(=O)(=O)NCCCCNC(=O)c2[nH]c3ccc(Cl)cc3c2S(=O)(=O)c2cc(C)cc(C)c2)cc1 [R2L4, 5-Chloro-3-((3,5-dimethylphenyl)sulfonyl)-N-(4-((4-methoxyphenyl)sulfonamido)butyl)-1H-indole-2-carboxamide] | 22500 ± 9140 | 180 | 330 ± 33 | 330 | 800 ± 83 | 250 ± 50 | 280 ± 33 | > 22500 | 615
COc1ccc(S(=O)(=O)NCCCCCNC(=O)c2[nH]c3ccc(Cl)cc3c2S(=O)(=O)c2cc(C)cc(C)c2)cc1 [R2L5, 5-Chloro-3-((3,5-dimethylphenyl)sulfonyl)-N-(5-((4-methoxyphenyl)sulfonamido)pentyl)-1H-indole-2-carboxamide] | 110000 ± 7890 | 94 ± 47 | 570 | 190 ± 16 | 1280 ± 440 | 130 ± 49 | 280 ± 65 | > 110000 | 4772
Cc1cc(C)cc(S(=O)(=O)c2c(C(=O)NCCNS(=O)(=O)c3ccc([N+](=O)[O-])cc3)[nH]c3ccc(Cl)cc23)c1 [R3L2, 5-Chloro-3-((3,5-dimethylphenyl)sulfonyl)-N-(2-((4-nitrophenyl)sulfonamido)ethyl)-1H-indole-2-carboxamide] | > 212000 | 950 ± 85 | 590 ± 100 | 1000 ± 170 | > 212000 | 1150 | 6170 ± 1140 | > 212000 | >1764
Cc1cc(C)cc(S(=O)(=O)c2c(C(=O)NCCCNS(=O)(=O)c3ccc([N+](=O)[O-])cc3)[nH]c3ccc(Cl)cc23)c1 [R3L3, 5-Chloro-3-((3,5-dimethylphenyl)sulfonyl)-N-(3-((4-nitrophenyl)sulfonamido)propyl)-1H-indole-2-carboxamide] | 23000 ± 600 | 350 ± 17 | 730 ± 120 | 1030 ± 50 | 3290 ± 66 | 310 ± 50 | 1770 ± 33 | 4920 ± 1270 | 464
Cc1cc(C)cc(S(=O)(=O)c2c(C(=O)NCCCCNS(=O)(=O)c3ccc([N+](=O)[O-])cc3)[nH]c3ccc(Cl)cc23)c1 [R3L4, 5-Chloro-3-((3,5-dimethylphenyl)sulfonyl)-N-(4-((4-nitrophenyl)sulfonamido)butyl)-1H-indole-2-carboxamide] | 104000 ± 31400 | 130 ± 18 | 500 ± 160 | 400 ± 110 | 870 ± 65 | 230 ± 32 | 360 ± 32 | 1880 ± 680 | 3809
Cc1cc(C)cc(S(=O)(=O)c2c(C(=O)NCCCCCNS(=O)(=O)c3ccc([N+](=O)[O-])cc3)[nH]c3ccc(Cl)cc23)c1 [R3L5, 5-Chloro-3-((3,5-dimethylphenyl)sulfonyl)-N-(5-((4-nitrophenyl)sulfonamido)pentyl)-1H-indole-2-carboxamide] | > 198000 | 130 ± 6.3 | 900 ± 79 | 300 | 2470 ± 160 | 250 ± 32 | 540 ± 140 | 25140 ± 47 | >7548
Cc1cc(C)cc(S(=O)(=O)c2c(C(=O)NCCNS(=O)(=O)c3ccc(F)cc3)[nH]c3ccc(Cl)cc23)c1 [R4L2, 5-Chloro-3-((3,5-dimethylphenyl)sulfonyl)-N-(2-((4-fluorophenyl)sulfonamido)ethyl)-1H-indole-2-carboxamide] | > 222000 | 210 ± 36 | 360 ± 160 | 370 ± 140 | 3000 ± 53 | 370 ± 110 | 830 ± 120 | 3230 ± 18 | >7921
Cc1cc(C)cc(S(=O)(=O)c2c(C(=O)NCCCNS(=O)(=O)c3ccc(F)cc3)[nH]c3ccc(Cl)cc23)c1 [R4L3, 5-Chloro-3-((3,5-dimethylphenyl)sulfonyl)-N-(3-((4-fluorophenyl)sulfonamido)propyl)-1H-indole-2-carboxamide] | 35000 ± 6970 | 240 ± 35 | 450 ± 100 | 690 ± 17 | 2840 ± 52 | 260 ± 17 | 1040 ± 35 | 3550 ± 350 | 901
Cc1cc(C)cc(S(=O)(=O)c2c(C(=O)NCCCCNS(=O)(=O)c3ccc(F)cc3)[nH]c3ccc(Cl)cc23)c1 [R4L4, 5-Chloro-3-((3,5-dimethylphenyl)sulfonyl)-N-(4-((4-fluorophenyl)sulfonamido)butyl)-1H-indole-2-carboxamide] | > 211000 | 56 ± 36 | 190 ± 51 | 200 ± 34 | 1270 ± 200 | 63 ± 3 | 290 ± 120 | > 211000 | >10,593
